Test results: patent US12583820B2, “Broad spectrum antivirals against coronavirus” (priority 2020, dated 2026)
Where two headings read alike, the source gives them in different places.

Experiments:
[1] = Nonspecific cytotoxic effects (CC50), CytoTox 96 kit
[2] = molecular target: 3CLpro of MERS-CoV (Middle East respiratory syndrome-related coronavirus, UniProt K9N7C7); experiment: biochemical; type: biochemical
[3] = molecular target: T1, 3CLpro of SARS-CoV-2 (Severe acute respiratory syndrome coronavirus 2, UniProt P0DTD1); experiment: biochemical; type: biochemical
T1 construct: The codon-optimized cDNA of full length of 3CLpro of SARS-CoV-2; 6xHis (N); made in house; pET-28a(+) vector (points to E. coli, my inference)

[4] = tested on: HG23 cells
[5] = tested on: NV in the replicon harboring cells (HG23 cells); experiment: microbe, parasite or virus in culture; type: cell-based, norovirus (NV); details: read-out: EC50 (μM) ± SD

3CLpro of MERS-CoV, sequence (K9N7C7 3248-3553 limits assumed): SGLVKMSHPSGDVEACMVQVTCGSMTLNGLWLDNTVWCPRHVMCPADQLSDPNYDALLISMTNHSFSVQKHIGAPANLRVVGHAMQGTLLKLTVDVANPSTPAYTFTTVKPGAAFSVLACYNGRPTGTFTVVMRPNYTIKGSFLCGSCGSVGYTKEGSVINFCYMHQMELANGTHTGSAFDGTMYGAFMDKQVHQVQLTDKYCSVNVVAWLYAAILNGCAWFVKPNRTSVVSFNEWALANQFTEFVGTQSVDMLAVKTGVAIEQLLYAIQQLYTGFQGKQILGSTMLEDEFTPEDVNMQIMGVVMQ

Row | SMILES | CC50 at 72 h [1] [µM] | IC50 [2] [µM] | IC50 [3] [µM] | also measured
1 | CCCC(OC(=O)N[C@@H](CC(C)C)C(=O)N[C@@H](C[C@@H]1CCNC1=O)C(O)S(=O)(=O)O)c1ccccc1 (mixture of isomers) [Compound 23c, Sodium(2S)-1-hydroxy-2-((2S)-4-methyl-2-(((1-phenylbutoxy)carbonyl)amino)pentanamido)-3-((S)-2-oxopyrrolidin-3-yl)propane-1-sulfonate] | > 100 | – | – | IC50 ([2]; read-out: IC50): 0.13 µM
2 | CC(C)C[C@H](NC(=O)OCCCC1CCCCC1)C(=O)N[C@@H](C[C@@H]1CCNC1=O)C(O)S(=O)(=O)O (stereo partly drawn) [Compound 7f (Scheme 1), sodium (2S)-2-((S)-2-(((3-cyclohexylpropoxy)carbonyl)amino)-4-methylpentanamido)-1-hydroxy-3-((S)-2-oxopyrrolidin-3-yl)propane-1-sulfonate] | > 100 | 0.64 | – | –
3 | CC(C)C[C@H](NC(=O)OC(C)C1CCC(F)(F)CC1)C(=O)N[C@@H](C[C@@H]1CCNC1=O)C(O)S(=O)(=O)O (stereo partly drawn) [Compound 12c, Sodium (2S)-2-((2S)-2-(((1-(4,4-difluorocyclohexyl)ethoxy)carbonyl)amino)-4-methylpentan amido)-1-hydroxy-3-((S)-2-oxopyrrolidin-3-yl)propane-1-sulfonate] | > 100 | 0.12 | 0.2 | –
4 | CCCC1CCC(COC(=O)NC(CC(C)C)C(=O)NC(CC2CCNC2=O)C(O)S(=O)(=O)O)CC1 [Compound 8c, Sodium (2S)-1-hydroxy-2-((S)-4-methyl-2-(((((1r,4R)-4-propylcyclohexyl)methoxy)carbonyl)amino)pentanamido)-3-(2-oxopyrrolidin-3-yl) propane-1-sulfonate] | > 100 | 0.11 | 0.21 | –
5 | O=C[C@H](C[C@@H]1CCNC1=O)NC(=O)[C@H](CC1CCCCC1)NC(=O)OCCCc1cccc(Cl)c1 [Compound 5j (Example 5)] | – | – | – | CC50 [4]: 30.3 ± 2.83 µM; EC50 [5]: 0.08 ± 0.01 µM
6 | CC(C)C[C@H](NC(=O)OCc1cccc(F)c1)C(=O)N[C@@H](C[C@@H]1CCNC1=O)C(O)S(=O)(=O)O (stereo partly drawn) [Compound 18c, Sodium (2S)-2-((S)-2-((((3-fluorobenzyl)oxy)carbonyl)amino)-4-methylpentanamido)-1-hydroxy-3-((S)-2-oxopyrrolidin-3-yl)propane-1-sulfonate] | > 100 | 0.08 | 0.31 | –
7 | CC(C)C[C@H](NC(=O)OC1CCC(C)(C)CC1)C(=O)N[C@@H](C[C@@H]1CCNC1=O)C(O)S(=O)(=O)O (stereo partly drawn) [Compound 1c, Sodium (2S)-2-((S)-2-((((4,4-dimethylcyclohexyl)oxy)carbonyl)amino)-4-methylpentan amido)-1-hydroxy-3-((S)-2-oxopyrrolidin-3-yl)propane-1-sulfonate] | > 100 | 0.09 | – | IC50 ([3]; read-out: IC50): 0.24 µM
8 | CC(C)C[C@H](NC(=O)OCc1c(F)c(F)c(F)c(F)c1F)C(=O)N[C@@H](CC1CCNC1=O)C(O)S(=O)(=O)O (stereo partly drawn) [Compound 21c, Sodium (2S)-1-hydroxy-2-((S)-4-methyl-2-((((perfluorophenyl)methoxy)carbonyl)amino)pentanamido)-3-(2-oxopyrrolidin-3-yl) propane-1-sulfonate] | > 100 | 0.07 | – | –
9 | CCCCC1CCC(OC(=O)NC(CC(C)C)C(=O)NC(CC2CCNC2=O)C(O)S(=O)(=O)O)CC1 [Compound 4c, Sodium (2S)-2-((S)-2-(((((1s,4S)-4-butylcyclohexyl)oxy)carbonyl)amino)-4-methylpentan amido)-1-hydroxy-3-((S)-2-oxopyrrolidin-3-yl)propane-1-sulfonate] | > 100 | 0.15 | – | –
10 | O=C(N[C@@H](CC1CCCCC1)C(=O)N[C@@H](C[C@@H]1CCNC1=O)C(O)S(=O)(=O)O)OC1CCC(F)(F)CC1 (stereo partly drawn) [Compound 7i (Scheme 1), sodium (2S)-2-((S)-3-cyclohexyl-2-((((4,4-difluorocyclohexyl)oxy)carbonyl)amino)propan-amido)-1-hydroxy-3-((S)-2-oxopyrrolidin-3-yl)propane-1-sulfonate] | > 100 | > 50 | – | –
11 | CCCCCC(=O)OC([C@H](C[C@@H]1CCNC1=O)NC(=O)[C@H](CC1CCCCC1)NC(=O)OCC(C)(C)Cc1cccc(Cl)c1)S(=O)(=O)O (some centres unmarked) [Compound 7l] | – | – | – | CC50 [4]: 20.7 ± 4.03 µM; EC50 [5]: 0.08 ± 0.02 µM
12 | CC(C)C[C@H](NC(=O)OC(C)(C)C1CCC(F)(F)CC1)C(=O)N[C@H](C=O)C[C@@H]1CCNC1=O [Compound 13b, 2-(4,4-Difluorocyclohexyl)propan-2-yl ((S)-4-methyl-1-oxo-1-(((S)-1-oxo-3-((S)-2-oxopyrrolidin-3-yl)propan-2-yl)amino)pentan-2-yl)carbamate] | > 100 | – | 0.8 | –
13 | CC(C)C[C@H](NC(=O)OCC(C)(C)Cc1cccc(Cl)c1)C(=O)N[C@H](C=O)C[C@@H]1CCNC1=O [Compound 5o] | – | – | – | CC50 [4]: > 100 µM; EC50 [5]: 0.14 ± 0.04 µM
14 | CC(C)C[C@H](NC(=O)O[C@H]1CC[C@H](C(C)C)CC1)C(=O)N[C@H](C=O)C[C@@H]1CCNC1=O [Compound 2b, (1r,4S)-4-isopropylcyclohexyl ((S)-4-methyl-1-oxo-1-(((S)-1-oxo-3-((S)-2-oxopyrrolidin-3-yl)propan-2-yl)amino)pentan-2-yl)carbamate] | > 100 | – | 0.25 | –
15 | CCCC1CCC(COC(=O)NC(CC(C)C)C(=O)NC(C=O)CC2CCNC2=O)CC1 [Compound 8b, ((1r,4R)-4-Propylcyclohexyl) methyl ((2S)-4-methyl-1-oxo-1-(((2S)-1-oxo-3-(2-oxopyrrolidin-3-yl)propan-2-yl)amino)pentan-2-yl) carbamate] | > 100 | – | 0.22 | –
16 | CC(C)C[C@H](NC(=O)OCc1ccccc1F)C(=O)N[C@@H](C[C@@H]1CCNC1=O)C(O)S(=O)(=O)O (stereo partly drawn) [Compound 17c, Sodium (2S)-2-((S)-2-((((2-fluorobenzyl)oxy)carbonyl)amino)-4-methylpentanamido)-1-hydroxy-3-((S)-2-oxopyrrolidin-3-yl)propane-1-sulfonate] | > 100 | – | 0.4 | –
17 | CC(C)C[C@H](NC(=O)OC(Cc1ccccc1)C1CCC(F)(F)CC1)C(=O)N[C@@H](C[C@@H]1CCNC1=O)C(O)S(=O)(=O)O (stereo partly drawn) [Compound 14c, Sodium (2S)-2-((2S)-2-(((1-(4,4-difluorocyclohexyl)-2-phenylethoxy)carbonyl)amino)-4-methylpentanamido)-1-hydroxy-3-((S)-2-oxopyrrolidin-3-yl)propane-1-sulfonate] | > 100 | 0.16 | 0.22 | –
18 | CC(C)CC(NC(=O)OC1CCC(C(C)C)CC1)C(=O)NC(CC1CCNC1=O)C(O)S(=O)(=O)O [Compound 2c, Sodium (2S)-1-hydroxy-2-((S)-2-(((((1r,4S)-4-isopropylcyclohexyl)oxy)carbonyl)amino)-4-methylpentanamido)-3-((S)-2-oxopyrrolidin-3-yl)propane-1-sulfonate] | > 100 | – | 0.23 | –
19 | CCCC(OC(=O)N[C@@H](CC(C)C)C(=O)N[C@H](C=O)C[C@@H]1CCNC1=O)c1ccccc1 (stereo partly drawn) [Compound 23b, 1-Phenylbutyl ((S)-4-methyl-1-oxo-1-(((S)-1-oxo-3-((S)-2-oxopyrrolidin-3-yl)propan-2-yl)amino)pentan-2-yl)carbamate] | > 100 | – | – | fold more potent than the corresponding 24b/c aldehyde and bisulfite adducts [3]: 27 fold; IC50 ([3]; read-out: IC50 against 3CLpro): 0.15 µM
